ChEMBL document CHEMBL4765227, “Hit to lead optimization of a series of N-[4-(1,3-benzothiazol-2-yl)phenyl]acetamides as monoacylglycerol lipase inhibitors with potential anticancer activity” (Eur J Med Chem, 2016)

How the values were obtained:
Assay type in all cases: functional
Settings in all cases: read-out: GI
SW-620 = assay: Growth inhibition of human SW-620 cells at 10 uM incubated for 48 hrs by sulforhodamine B assay relative to control
SNB-19 = assay: Growth inhibition of human SNB-19 cells at 10 uM incubated for 48 hrs by sulforhodamine B assay relative to control
UACC-257 = assay: Growth inhibition of human UACC-257 cells at 10 uM incubated for 48 hrs by sulforhodamine B assay relative to control
OVCAR-5 = assay: Growth inhibition of human OVCAR-5 cells at 10 uM incubated for 48 hrs by sulforhodamine B assay relative to control
SF-268 = assay: Growth inhibition of human SF-268 cells at 10 uM incubated for 48 hrs by sulforhodamine B assay relative to control
HCC 2998 = assay: Growth inhibition of human HCC 2998 cells at 10 uM incubated for 48 hrs by sulforhodamine B assay relative to control
HCT-15 = assay: Growth inhibition of human HCT-15 cells at 10 uM incubated for 48 hrs by sulforhodamine B assay relative to control
HOP-92 = assay: Growth inhibition of human HOP-92 cells at 10 uM incubated for 48 hrs by sulforhodamine B assay relative to control
RPMI-8226 = assay: Growth inhibition of human RPMI-8226 cells at 10 uM incubated for 48 hrs by sulforhodamine B assay relative to control
SK-MEL-2 = assay: Growth inhibition of human SK-MEL-2 cells at 10 uM incubated for 48 hrs by sulforhodamine B assay relative to control
SNB-75 = assay: Growth inhibition of human SNB-75 cells at 10 uM incubated for 48 hrs by sulforhodamine B assay relative to control
SK-MEL-28 = assay: Growth inhibition of human SK-MEL-28 cells at 10 uM incubated for 48 hrs by sulforhodamine B assay relative to control
T47D = assay: Growth inhibition of human T47D cells at 10 uM incubated for 48 hrs by sulforhodamine B assay relative to control
Malme-3M = assay: Growth inhibition of human Malme-3M cells at 10 uM incubated for 48 hrs by sulforhodamine B assay relative to control
A498 = assay: Growth inhibition of human A498 cells at 10 uM incubated for 48 hrs by sulforhodamine B assay relative to control
EKVX = assay: Growth inhibition of human EKVX cells at 10 uM incubated for 48 hrs by sulforhodamine B assay relative to control

| Compound | inhibition of growth at 10 µM (SW-620) [%] | inhibition of growth at 10 µM (SNB-19) [%] | inhibition of growth at 10 µM (UACC-257) [%] | inhibition of growth at 10 µM (OVCAR-5) [%] | inhibition of growth at 10 µM (SF-268) [%] | inhibition of growth at 10 µM (HCC 2998) [%] | inhibition of growth at 10 µM (HCT-15) [%] | inhibition of growth at 10 µM (HOP-92) [%] | inhibition of growth at 10 µM (RPMI-8226) [%] | inhibition of growth at 10 µM (SK-MEL-2) [%] | inhibition of growth at 10 µM (SNB-75) [%] | inhibition of growth at 10 µM (SK-MEL-28) [%] | inhibition of growth at 10 µM (T47D) [%] | inhibition of growth at 10 µM (Malme-3M) [%] | inhibition of growth at 10 µM (A498) [%] | inhibition of growth at 10 µM (EKVX) [%] |
| --- | --- | --- | --- | --- | --- | --- | --- | --- | --- | --- | --- | --- | --- | --- | --- | --- |
| O=C(CN1CCCCC1)Nc1ccc(-c2nc3ccccc3s2)cc1 | -9.04 | -0.02 | 2.05 | -4.63 | 0.48 | 9.72 | 28 | 44.5 | 11.3 | -7.06 | 1.53 | -9.51 | 17.8 | -9.17 |  |  |
| O=C(CNC1CCCCC1)Nc1ccc(-c2nc3ccccc3s2)cc1 | -0.38 | 9.04 | -4.65 | 5.32 | 21.6 | 12.7 | 37.1 | 51.2 | 22.4 | -4.63 | 32.7 | 4.77 | 30.9 | -5.44 |  |  |
| O=C(CNc1nnc(-c2ccc(Cl)cc2)o1)Nc1ccc(-c2nc3ccccc3s2)cc1 | -9.76 | 9.4 | -2.8 | -16.4 | 22.6 | 6.46 | 10.4 | 12.1 | 4.61 |  | 14.2 | -16.7 | 20.1 | 11.3 | 18 | -4.4 |
| Cc1cc(C)n(CC(=O)Nc2ccc(-c3nc4ccccc4s3)cc2)n1 | -13.1 | 0.22 | -7.21 | -4.65 | -0.26 | 7.15 | -5.24 | 2.31 | 2.85 |  | -0.57 | -8.88 | 6.7 | -7.85 | 5.37 | -7.86 |
| O=C(CNCc1ccccc1)Nc1ccc(-c2nc3ccccc3s2)cc1 | -1.34 | 2.46 | 4.97 | 12.3 | 3.99 | 9.91 | 8.74 | 15.1 | 10.1 | -7.25 | 18 | 2.7 | 11.6 | -6.22 |  |  |
| O=C(CN1CCOCC1)Nc1ccc(-c2nc3ccccc3s2)cc1 | -7.93 | -0.79 | -1.38 | 6.58 | -10.3 | 12 | 6.26 | 16.7 | 6 | -14.6 | 0.01 | -2.13 | 6.73 | -17 |  |  |
| O=C(CNc1ccccc1)Nc1ccc(-c2nc3ccccc3s2)cc1 | -6.41 | 8.22 | -1.98 | -10.9 | 12.1 | -16 | 29.6 | 3.37 | 12.5 | -4.93 | 17.4 | 3.37 | 21.4 | 4.9 |  |  |
| Cc1cc(NCC(=O)Nc2ccc(-c3nc4ccccc4s3)cc2)no1 | -13.2 | 3.47 | 0.29 | -19 | 12.6 | 0.84 | 9.32 | -0.34 | 1.57 |  | -11.5 | -10.5 | 19.7 | 10.5 | 10.3 | -7.95 |
| COc1ccc(NCC(=O)Nc2ccc(-c3nc4ccccc4s3)cc2)cc1 | -4.02 | 11.4 | -3.88 | 1.84 | 10.5 | 3.49 | 10.1 | 29.1 | 13.6 | -15.7 | 25.4 | -11.1 | 31.2 | -26 |  |  |
| NS(=O)(=O)c1ccc(NCC(=O)Nc2ccc(-c3nc4ccccc4s3)cc2)cc1 | 36.3 | 25.7 | 2.83 | -5.64 | 74.9 | 12.4 | 53.4 | 26.5 | 63.3 | 12.2 | 30.5 | 0.58 | 53.6 | 46.4 |  |  |
| O=C(CNc1nc(-c2ccc(Cl)cc2)cs1)Nc1ccc(-c2nc3ccccc3s2)cc1 | 0.12 | 1.83 | -0.39 | 9.63 | 9.23 | 2.47 | -10.2 | 7.09 | 12.6 |  | 22.2 | -10.9 | 43.9 | -1.86 | -2.14 | -2.38 |
| O=C(Cn1ccnc1)Nc1ccc(-c2nc3ccccc3s2)cc1 | 0.17 | 23.6 | 32.4 | -3.81 | 18.9 | 5.1 | 13 | 24.2 | 48 |  | 11.2 | -4.87 | 48.6 |  | 42.5 | 38.6 |
| Cc1ccc(NCC(=O)Nc2ccc(-c3nc4ccccc4s3)cc2)cc1 | -7.34 | 10.5 | 5.3 | -6.57 | 12.6 | 17 | 13.4 | 15.7 | 18.6 | -6.66 | -0.38 | -17.2 | 33.8 | -21.5 |  |  |
| O=C(CNc1nc2ccccc2s1)Nc1ccc(-c2nc3ccccc3s2)cc1 | -8.73 | -0.11 | -1.9 | 1.6 | 7.92 | 7.87 | -4.63 | 0.18 | -7.46 |  | 1.04 | -13.3 | 26.1 | 1.87 | 6.15 | -9.9 |
| CN1CCN(CC(=O)Nc2ccc(-c3nc4ccccc4s3)cc2)CC1 | -2.26 | 10.3 | -5.35 | 27.1 | 17 | 22.7 | 47.1 | 64.3 | 11.9 |  | 26.9 | 66.2 | 45.9 | 1.71 | 40.5 | 16.3 |
